Reference: the SangsterLogP compilation

Assay: from Nakagawa, S.; Okajima, N.; Kitahaba, T.; Nishimura, K.; Fujita, T.; Nakajima, M. (1982). Quantitative structure-activity studies of substituted benzylchrysanthemates. I. Correlation between …

`C=CCC1=C(C)[C@H](OC(=O)C2C(C=C(C)C)C2(C)C)CC1=O` (stereo partly drawn) showed a logP of 4.78.
`CC(=O)OCN1C(=O)C2=C(CCCC2)C1=O` gave a logP of 1.15.
`COC(=O)C1C(C=C2CCSC2=O)C1(C)C` (stereo not drawn) gave a logP of 2.33.
`CC(=O)OCc1ccc(Cl)cc1` showed a logP of 2.59.
In the case of `CC(=O)OCc1coc(Cc2ccccc2)c1`, the logP is reported as 3.24.
For `COC(=O)C1C(C=C(Cl)Cl)C1(C)C` (stereo not drawn), the logP was 3.63.
`CC(C)=CC1C(C(=O)OCc2ccccc2)C1(C)C` (stereo not drawn) gave a logP of 5.49.
Molecule `CC(=O)OCc1ccc(C)cc1` has a logP of 2.44.
`CC(C)=C[C@@H]1[C@@H](C(=O)OCc2ccc(C#N)cc2)C1(C)C` showed a logP of 4.91.
With `CC(=O)OCc1ccc([N+](=O)[O-])cc1` the logP was 1.73.
Molecule `COC(=O)[C@@H]1[C@@H](C=C(C)C)C1(C)C` has a logP of 3.76.
`COc1cccc(COC(C)=O)c1` gave a logP of 2.02.
Molecule `CC(C)=C[C@@H]1[C@@H](C(=O)OCc2ccccc2[N+](=O)[O-])C1(C)C` has a logP of 5.2.
